From patent US20230079687A1, “ALKYLRESORCINOL HOMOLOGUES AS ANTIOXIDANTS” (The Penn State Research Foundation, priority 2021, published 2023)
“Also recorded” adds a separate entry of the source.

Tests used:
[1] = literature, same low-moisture model cracker system; cited from earlier work
[2] = Formation of lipid hydroperoxides in antioxidant-treated crackers during storage; settings: for course of lipid hydroperoxide formation after the lag phase (in words) / storage day at which lipid hydroperoxide concentration began to increase (end of lag phase): FIG. 1; for storage day at which lipid hydroperoxide concentration began to increase (end of lag phase): autoxidized at 55° C. in the absence of light; for order of induction periods for lipid hydroperoxides: time to reach threshold [Hydroperoxides]=0.1 mM/g cracker, FIG. 3A
Protocol: (§1) Based on the concentrations of the individual AR stock solutions previously determined, an appropriate volume, containing 153 μmol of the respective individual AR homologue, was measured into plastic centrifuge tubes to prepare individual AR homologue treatments. A treatment containing a mixture of the individual AR homologues, at their natural abundance in rye bran, was prepared by combining 25.3% of C17:0, 32.0% of C19:0, 22.6% of C21:0, 12.5% of C23:0, and 7.6% of C25:0. The same procedure was carried out with 10 mM stock solutions of orcinol, α-tocopherol, and butylated hydroxytoluene (BHT) and all treatments were dried under a stream of nitrogen. Ethanol (1.0 mL) was added to the dried treatments (and a control treatment containing no antioxidant) and mixed with 10 g of melted ISO. The antioxidant activity of each treatment was tested at 153 μmol because this corresponds to 500 ppm of C21:0 in the final cracker which is a typical antioxidant concentration used in bakery applications.
(§2) Antioxidant-treated ISO was melted at 90° C. for 10 minutes and mixed in a stand mixer (KSM95, KitchenAid, Benton Harbor, Mich., U.S.) using a beater blade for 1 minute (speed 2). Sifted flour, salt, and baking soda were added and mixed using a beater blade for 1 minute (speed 2). Water was added and mixed using a dough hook for 1 minute (speed 2). The additional flour was sprinkled onto the surface of a baking mat and incorporated into the dough by kneading by hand (30 folds). The dough was flattened by passing it through a pasta roller (KPSA, KitchenAid, Benton Harbor, Mich., U.S.) twice (thickness setting 2). The sheeted dough was cut into 2.5 cm×2.5 cm crackers and baked on an ungreased baking sheet for 9 minutes at 163° C. (FD 53-UL, Binder, Tuttlingen, Germany). After cooling to room temperature, crackers were coarsely crumbled using a mortar and pestle and weighed (0.5 g) into 10 mL amber glass headspace vials (Supelco Analytical, Bellefonte, Pa., U.S.), sealed with stainless steel screw caps with PTFE/silicone septa (Supelco Analytical, Bellefonte, Pa., U.S.), and allowed to autoxidize at 55° C. in the absence of light for up to 160 days. Crackers were analyzed for lipid hydroperoxides, headspace hexanal, and AR loss every 5 days for day 0-50, every 10 days for day 51-100, and every 20 days for the remainder of the storage time.
Lipid hydroperoxides were determined according to the method described by Shantha & Decker (1994) with slight modifications. Cracker samples (0.1 g) were finely ground using a mortar and pestle and mixed with 5.0 mL chloroform/methanol (2:1 (v/v)) by vortexing (10 seconds, 3 times). The hydroperoxide-containing lipid fraction was extracted and isolated by centrifugation at 2500×g for 10 minutes (Centrifuge 5702, A-4-38 Rotor, Eppendorf, Hamburg, Germany). To this extract (1.0 mL), 16.7 μL of an iron chloride solution (prepared by mixing 50 mL 66 mM FeSO4 in water with 50 mL 38 mM BaCl2 in 0.4 N HCl) was added followed by 16.7 μL of ammonium thiocyanate (3.9 M in water), and allowed to react at room temperature for 20 minutes. The absorbance of the samples was measured at 500 nm (GENESYS 180 UV-Vis Spectrophotometer, Thermo Fisher Scientific, Waltham, Mass., U.S.) and lipid hydroperoxides were quantified based on a standard curve prepared using cumene hydroperoxide.
Individual AR homologues (C17:0, C19:0, C21:0, C23:0, C25:0) were added separately and as a mixture (AR Mix) to ISO and subsequently incorporated into the cracker samples. The antioxidant activities of the AR homologues in crackers were compared to orcinol (a water-soluble AR), conventional antioxidants (i.e., α-tocopherol, BHT), and a control treatment (i.e., no added antioxidant). The crackers were allowed to autoxidize in the absence of light and primary (i.e., lipid hydroperoxides) and secondary products (i.e., headspace hexanal) of lipid oxidation were measured as a function of time.

[3] = oxygen radical absorbance capacity assay, earlier work of the Inventors; cited from earlier work
[4] = Antioxidant activity in the low-moisture model cracker system (overall lipid oxidation study); settings: 153 μmol antioxidant
Protocol: Based on the concentrations of the individual AR stock solutions previously determined, an appropriate volume, containing 153 μmol of the respective individual AR homologue, was measured into plastic centrifuge tubes to prepare individual AR homologue treatments. […] The same procedure was carried out with 10 mM stock solutions of orcinol, α-tocopherol, and butylated hydroxytoluene (BHT) and all treatments were dried under a stream of nitrogen. Ethanol (1.0 mL) was added to the dried treatments (and a control treatment containing no antioxidant) and mixed with 10 g of melted ISO. […] Antioxidant-treated ISO was melted at 90° C. for 10 minutes and mixed in a stand mixer (KSM95, KitchenAid, Benton Harbor, Mich., U.S.) using a beater blade for 1 minute (speed 2). […] flour, salt, and baking soda were added and mixed using a beater blade for 1 minute (speed 2). Water was added and mixed using a dough hook for 1 minute (speed 2). The additional flour was sprinkled onto the surface of a baking mat and incorporated into the dough by kneading by hand (30 folds). The dough was flattened by passing it through a pasta roller (KPSA, KitchenAid, Benton Harbor, Mich., U.S.) twice (thickness setting 2). The sheeted dough was cut into 2.5 cm×2.5 cm crackers and baked on an ungreased baking sheet for 9 minutes at 163° C. (FD 53-UL, Binder, Tuttlingen, Germany). […] Individual AR homologues (C17:0, C19:0, C21:0, C23:0, C25:0) were added separately and as a mixture (AR Mix) to ISO and subsequently incorporated into the cracker samples. The antioxidant activities of the AR homologues in crackers were compared to orcinol (a water-soluble AR), conventional antioxidants (i.e., α-tocopherol, BHT), and a control treatment (i.e., no added antioxidant). The crackers were allowed to autoxidize in the absence of light and primary (i.e., lipid hydroperoxides) and secondary products (i.e., headspace hexanal) of lipid oxidation were measured as a function of time.

[5] = Formation of headspace hexanal in antioxidant-treated crackers during storage; settings: for activity concluded from headspace hexanal formation / storage day at which headspace hexanal began to increase (end of lag phase): 153 μmol antioxidant in crackers; for activity concluded from headspace hexanal formation: 55° C., compared to control crackers; for storage day at which headspace hexanal began to increase (end of lag phase): autoxidized at 55° C. in the absence of light, FIG. 2; for order of induction periods for headspace hexanal: time to reach threshold [Hexanal]=1.0 mM/g cracker, FIG. 3B
Protocol: as §1, §2
Cracker samples were prepared for GC-MS analysis by adding 10 μL of 100 mg/L 2-methypentanal (internal standard) in methanol directly through the capped headspace vial's septum. The GC system consisted of a 7890B gas chromatograph (Agilent, Santa Clara, Calif., U.S.) with sample introduction by means of an autosampler (Robotic MultiPurpose Sampler, Gerstel, Mülheim, Germany). Samples were equilibrated for 10 minutes at 55° C. with continuous shaking. A 50/30 μm divinylbenzene/carboxen/polydimethylsiloxane (DVB/CAR/PDMS) (1 cm) (Supelco Analytical, Bellefonte, Pa., U.S.) solid phase microextraction (SPME) fiber was exposed to the sample headspace for 2 minutes at 55° C. The SPME fiber was desorbed for 6 minutes at 250° C. in the injection port equipped with a SPME inlet liner at a split ratio of 10:1. Volatile aldehydes were separated on a Rtx-WAX capillary column (30 m, 0.25 mm i.d., 0.25 μm film thickness) (Restek, Bellefonte, Pa., U.S.). An oven program was followed to separate the different volatile aldehydes at a constant helium carrier gas flow rate of 1.22 mL/min. The oven program was as follows: hold at 40° C. for 1 minute; ramp at 10° C./min to 75° C.; ramp at 100° C./min to 250° C.; hold at 250° C. for 1.75 minutes. Detection and quantification of hexanal and 2-methylpentanal was achieved using a single quadrupole mass spectrometer (5977B, Agilent, Santa Clara, Calif., U.S.) coupled to the GC. The MS transfer line, quadrupole, and detector temperatures were set to 250° C., 230° C., 150° C., respectively. Mass spectra were collected in electron impact mode.

[6] = 153 μmol antioxidant in crackers, 55° C.
[7] = 153 μmol antioxidant in crackers

Row | SMILES | antioxidant activity against formation of lipid hydroperoxides and hexanal [1] | course of lipid hydroperoxide formation after the lag phase (in words) [2, 6] | storage day at which lipid hydroperoxide concentration began to increase (end of lag phase) [2, 7] | order of induction periods for lipid hydroperoxides [2] | radical scavenging capacity [3] | antioxidant activity in the low-moisture model cracker system (in words) [4] | activity concluded from headspace hexanal formation [5] | storage day at which headspace hexanal began to increase (end of lag phase) [5] | order of induction periods for headspace hexanal [5] | activity concluded from lipid hydroperoxide formation ([2]; 153 μmol antioxidant in crackers, 55° C., compared to control crackers)
1 | O=C(/C=C/c1ccc(O)c(O)c1)O[C@H](Cc1ccc(O)c(O)c1)C(=O)O [rosmarinic acid] | weak antioxidant and prooxidant activity | – | – | – | – | – | – | – | – | –
2 | Cc1cc(O)cc(O)c1 [orcinol] | – | oxidizing most rapidly | 25 days | AR Mix≈C23:0>C25:0>(C21:0≈C19:0)>(C19:0≈BHT)>(BHT≈orcinol)>(orcinol≈C17:0)>control>>α-tocopherol | strongest antiradical activity | weak to no antioxidant activity | neither prooxidant or antioxidant activity | > 35 days | C23:0>BHT>C25:0 AR Mix>C21:0>C19:0≈C17:0>control≈orcinol>>α-tocopherol | –
3 | CCCCCCCCCCCCCCCCCCCCCCCc1cc(O)cc(O)c1 [C23:0] | – | slow, steady increase | – | AR Mix≈C23:0>C25:0>(C21:0≈C19:0)>(C19:0≈BHT)>(BHT≈orcinol)>(orcinol≈C17:0)>control>>α-tocopherol | – | optimum activity; also recorded: more effective than BHT | – | still in the lag phase of lipid oxidation at the conclusion of the study | C23:0>BHT>C25:0 AR Mix>C21:0>C19:0≈C17:0>control≈orcinol>>α-tocopherol | –
4 | CCCCCCCCCCCCCCCCCCCCOC(=O)C(Cc1ccc(O)c(O)c1)OC(=O)C=Cc1ccc(O)c(O)c1 (stereo not shown) [eicosyl ester] | stronger antioxidant activity than rosmarinic acid and the dodecyl ester | – | – | – | – | – | – | – | – | –
5 | Cc1cc(C(C)(C)C)c(O)c(C(C)(C)C)c1 [BHT, butylated hydroxytoluene] | – | slow, steady increase | 25 days | AR Mix≈C23:0>C25:0>(C21:0≈C19:0)>(C19:0≈BHT)>(BHT≈orcinol)>(orcinol≈C17:0)>control>>α-tocopherol | – | strong antioxidant activity | – | – | C23:0>BHT>C25:0 AR Mix>C21:0>C19:0≈C17:0>control≈orcinol>>α-tocopherol | –
6 | CCCCCCCCCCCCCCCCCCCc1cc(O)cc(O)c1 [C19:0] | – | – | 25 days | AR Mix≈C23:0>C25:0>(C21:0≈C19:0)>(C19:0≈BHT)>(BHT≈orcinol)>(orcinol≈C17:0)>control>>α-tocopherol | – | – | – | 50 days | C23:0>BHT>C25:0 AR Mix>C21:0>C19:0≈C17:0>control≈orcinol>>α-tocopherol | –
7 | Cc1c(C)c2c(c(C)c1O)CC[C@@](C)(CCC[C@H](C)CCC[C@H](C)CCCC(C)C)O2 [α-tocopherol] | – | – | immediately upon storage | AR Mix≈C23:0>C25:0>(C21:0≈C19:0)>(C19:0≈BHT)>(BHT≈orcinol)>(orcinol≈C17:0)>control>>α-tocopherol | – | strong prooxidant activity | prooxidant behavior | 5 days | C23:0>BHT>C25:0 AR Mix>C21:0>C19:0≈C17:0>control≈orcinol>>α-tocopherol | prooxidant activity
8 | CCCCCCCCCCCCCCCCCCCCCc1cc(O)cc(O)c1 [C21:0] | – | – | 25 days | AR Mix≈C23:0>C25:0>(C21:0≈C19:0)>(C19:0≈BHT)>(BHT≈orcinol)>(orcinol≈C17:0)>control>>α-tocopherol | – | – | – | 70 days | C23:0>BHT>C25:0 AR Mix>C21:0>C19:0≈C17:0>control≈orcinol>>α-tocopherol | –
9 | CCCCCCCCCCCCCCCCCCCCCCCCCc1cc(O)cc(O)c1 [C25:0] | – | slow, steady increase | – | AR Mix≈C23:0>C25:0>(C21:0≈C19:0)>(C19:0≈BHT)>(BHT≈orcinol)>(orcinol≈C17:0)>control>>α-tocopherol | – | more effective than BHT | – | – | C23:0>BHT>C25:0 AR Mix>C21:0>C19:0≈C17:0>control≈orcinol>>α-tocopherol | –
10 | CCCCCCCCCCCCCCCCCc1cc(O)cc(O)c1 [C17:0] | – | – | 25 days | AR Mix≈C23:0>C25:0>(C21:0≈C19:0)>(C19:0≈BHT)>(BHT≈orcinol)>(orcinol≈C17:0)>control>>α-tocopherol | – | – | – | 45 days | C23:0>BHT>C25:0 AR Mix>C21:0>C19:0≈C17:0>control≈orcinol>>α-tocopherol | –
